Where “and” joins values, the source holds several entries; their conditions need not be identical. Equal values may be shown once.
Tests used:
[1] = biological target: T1, Gastrin/cholecystokinin type B receptor (Rattus norvegicus, UniProt P30553)
T1 sequence (P30553 whole entry): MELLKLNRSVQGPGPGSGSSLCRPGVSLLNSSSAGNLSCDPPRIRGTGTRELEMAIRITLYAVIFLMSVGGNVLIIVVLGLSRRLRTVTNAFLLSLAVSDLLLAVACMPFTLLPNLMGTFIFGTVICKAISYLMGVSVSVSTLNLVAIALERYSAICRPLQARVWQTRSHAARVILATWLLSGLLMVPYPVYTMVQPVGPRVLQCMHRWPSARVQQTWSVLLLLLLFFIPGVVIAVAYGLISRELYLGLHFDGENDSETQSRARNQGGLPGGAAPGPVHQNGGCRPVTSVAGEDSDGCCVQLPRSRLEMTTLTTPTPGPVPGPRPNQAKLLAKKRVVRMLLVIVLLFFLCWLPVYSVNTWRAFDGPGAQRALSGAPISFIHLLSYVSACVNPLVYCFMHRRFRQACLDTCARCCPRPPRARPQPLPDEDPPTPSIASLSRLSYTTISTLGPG

Mu-type opioid receptor = Mu-type opioid receptor (Rattus norvegicus, UniProt P33535)
[2] = biological target: 5-hydroxytryptamine receptor 2A (Rattus norvegicus, UniProt P14842)
Histamine H1 receptor = Histamine H1 receptor (Cavia porcellus, UniProt P31389)
[3] = biological target: Kappa-type opioid receptor (Rattus norvegicus, UniProt P34975)
[4] = biological target: T2, 5-hydroxytryptamine receptor 1A (Rattus norvegicus, UniProt P19327)
T2 sequence (P19327 whole entry): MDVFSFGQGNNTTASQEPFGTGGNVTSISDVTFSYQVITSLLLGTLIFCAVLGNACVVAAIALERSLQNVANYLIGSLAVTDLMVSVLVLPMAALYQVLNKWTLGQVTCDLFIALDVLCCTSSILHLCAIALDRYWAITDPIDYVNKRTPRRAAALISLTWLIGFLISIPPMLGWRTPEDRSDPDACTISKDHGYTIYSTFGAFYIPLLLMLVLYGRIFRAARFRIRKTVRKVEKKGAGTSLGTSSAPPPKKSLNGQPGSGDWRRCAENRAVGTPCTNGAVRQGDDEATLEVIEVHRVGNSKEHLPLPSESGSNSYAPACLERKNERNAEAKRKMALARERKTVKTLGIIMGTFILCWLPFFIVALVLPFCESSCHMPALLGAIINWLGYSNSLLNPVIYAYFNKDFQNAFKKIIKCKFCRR

D(2) dopamine receptor = D(2) dopamine receptor (Rattus norvegicus, UniProt P61169)
[5] = biological target: T3, Alpha-1A adrenergic receptor (Rattus norvegicus, UniProt P43140)
T3 sequence (P43140 whole entry): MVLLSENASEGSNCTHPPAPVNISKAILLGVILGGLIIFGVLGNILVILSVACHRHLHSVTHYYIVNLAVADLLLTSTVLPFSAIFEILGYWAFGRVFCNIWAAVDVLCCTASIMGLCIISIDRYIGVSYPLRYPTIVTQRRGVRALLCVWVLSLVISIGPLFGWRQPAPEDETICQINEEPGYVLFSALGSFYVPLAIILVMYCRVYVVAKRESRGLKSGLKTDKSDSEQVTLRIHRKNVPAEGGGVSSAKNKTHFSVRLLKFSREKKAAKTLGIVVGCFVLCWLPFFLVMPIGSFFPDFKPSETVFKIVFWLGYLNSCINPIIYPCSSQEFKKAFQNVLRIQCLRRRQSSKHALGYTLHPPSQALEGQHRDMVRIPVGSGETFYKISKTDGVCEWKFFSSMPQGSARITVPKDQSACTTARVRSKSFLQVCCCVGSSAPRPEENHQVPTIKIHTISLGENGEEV

[6] = biological target: Gamma-aminobutyric acid receptor subunit alpha-1 (Rattus norvegicus, UniProt P62813)
[7] = biological target: T4, Alpha-2C adrenergic receptor (Rattus norvegicus, UniProt P22086)
T4 sequence (P22086 whole entry): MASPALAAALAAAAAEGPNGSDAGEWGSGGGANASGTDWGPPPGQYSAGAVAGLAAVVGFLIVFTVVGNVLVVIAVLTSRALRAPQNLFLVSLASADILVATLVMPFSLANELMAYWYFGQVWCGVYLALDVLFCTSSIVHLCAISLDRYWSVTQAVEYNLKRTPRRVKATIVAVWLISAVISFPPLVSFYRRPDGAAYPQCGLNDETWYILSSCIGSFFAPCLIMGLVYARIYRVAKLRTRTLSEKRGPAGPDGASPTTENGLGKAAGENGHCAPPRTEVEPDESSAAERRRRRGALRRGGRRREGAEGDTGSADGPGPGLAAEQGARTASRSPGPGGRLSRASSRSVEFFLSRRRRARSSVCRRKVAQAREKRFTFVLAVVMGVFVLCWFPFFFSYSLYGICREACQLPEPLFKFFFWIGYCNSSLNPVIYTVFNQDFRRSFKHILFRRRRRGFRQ

[8] = biological target: T5, Muscarinic acetylcholine receptor M2 (Rattus norvegicus, UniProt P10980)
T5 sequence (P10980 whole entry): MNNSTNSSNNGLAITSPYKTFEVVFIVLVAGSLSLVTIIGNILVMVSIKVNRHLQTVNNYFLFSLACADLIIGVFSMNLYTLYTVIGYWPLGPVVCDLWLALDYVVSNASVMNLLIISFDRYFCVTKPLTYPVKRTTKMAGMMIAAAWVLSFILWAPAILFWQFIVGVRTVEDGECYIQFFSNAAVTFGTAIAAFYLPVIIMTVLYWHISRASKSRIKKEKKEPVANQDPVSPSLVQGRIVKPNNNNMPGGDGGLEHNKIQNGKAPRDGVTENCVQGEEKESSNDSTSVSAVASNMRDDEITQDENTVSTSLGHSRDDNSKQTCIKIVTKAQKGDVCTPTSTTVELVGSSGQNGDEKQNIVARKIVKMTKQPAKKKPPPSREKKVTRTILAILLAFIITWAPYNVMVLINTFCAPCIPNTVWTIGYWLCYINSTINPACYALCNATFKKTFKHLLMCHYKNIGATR

[9] = biological target: T6, Muscarinic acetylcholine receptor M1 (Rattus norvegicus, UniProt P08482)
T6 sequence (P08482 whole entry): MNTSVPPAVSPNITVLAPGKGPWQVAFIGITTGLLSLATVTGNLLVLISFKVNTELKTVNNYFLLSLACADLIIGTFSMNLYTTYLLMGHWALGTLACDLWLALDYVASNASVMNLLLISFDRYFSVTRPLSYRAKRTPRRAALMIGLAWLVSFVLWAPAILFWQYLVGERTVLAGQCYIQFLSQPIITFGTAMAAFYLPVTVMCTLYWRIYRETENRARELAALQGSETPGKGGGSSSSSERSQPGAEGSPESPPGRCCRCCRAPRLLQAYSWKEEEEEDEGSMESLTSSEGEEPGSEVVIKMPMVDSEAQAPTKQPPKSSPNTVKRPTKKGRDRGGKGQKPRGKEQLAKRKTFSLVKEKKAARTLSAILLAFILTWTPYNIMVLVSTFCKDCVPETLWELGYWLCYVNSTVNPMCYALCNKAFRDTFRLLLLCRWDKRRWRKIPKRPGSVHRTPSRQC

[10] = biological target: Muscarinic acetylcholine receptor M3 (Rattus norvegicus, UniProt P08483)
D(1A) dopamine receptor = D(1A) dopamine receptor (Rattus norvegicus, UniProt P18901)
Glutamate receptor 3 = Glutamate receptor 3 (Rattus norvegicus, UniProt P19492)
[11] = biological target: Sigma non-opioid intracellular receptor 1 (Rattus norvegicus, UniProt Q9R0C9)
[12] = biological target: Beta-2 adrenergic receptor (Rattus norvegicus, UniProt P10608)

Measured: Ki

Histamine H1 receptor, sequence (P31389 whole entry): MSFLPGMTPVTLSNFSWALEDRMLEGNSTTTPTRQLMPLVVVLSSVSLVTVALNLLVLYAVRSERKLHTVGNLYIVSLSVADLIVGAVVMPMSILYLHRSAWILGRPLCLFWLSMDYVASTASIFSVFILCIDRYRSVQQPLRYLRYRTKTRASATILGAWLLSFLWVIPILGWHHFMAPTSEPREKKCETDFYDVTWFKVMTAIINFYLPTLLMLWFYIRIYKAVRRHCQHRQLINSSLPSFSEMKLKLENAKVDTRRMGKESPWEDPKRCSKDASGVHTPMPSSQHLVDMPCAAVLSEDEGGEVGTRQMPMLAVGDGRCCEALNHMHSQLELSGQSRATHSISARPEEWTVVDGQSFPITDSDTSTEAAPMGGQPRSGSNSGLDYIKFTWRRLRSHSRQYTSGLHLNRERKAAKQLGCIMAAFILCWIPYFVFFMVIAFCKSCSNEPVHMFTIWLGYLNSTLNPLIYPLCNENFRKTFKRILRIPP
Kappa-type opioid receptor, sequence (P34975 whole entry): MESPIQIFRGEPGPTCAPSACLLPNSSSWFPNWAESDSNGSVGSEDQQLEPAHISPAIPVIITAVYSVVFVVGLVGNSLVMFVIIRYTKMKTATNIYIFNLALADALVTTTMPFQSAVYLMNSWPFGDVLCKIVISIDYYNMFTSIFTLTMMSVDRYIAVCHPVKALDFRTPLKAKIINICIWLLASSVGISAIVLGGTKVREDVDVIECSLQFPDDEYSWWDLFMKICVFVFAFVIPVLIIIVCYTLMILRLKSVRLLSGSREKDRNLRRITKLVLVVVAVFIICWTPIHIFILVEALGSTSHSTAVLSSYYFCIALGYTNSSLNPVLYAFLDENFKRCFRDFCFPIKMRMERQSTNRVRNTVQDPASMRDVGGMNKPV
Muscarinic acetylcholine receptor M3, sequence (P08483 whole entry): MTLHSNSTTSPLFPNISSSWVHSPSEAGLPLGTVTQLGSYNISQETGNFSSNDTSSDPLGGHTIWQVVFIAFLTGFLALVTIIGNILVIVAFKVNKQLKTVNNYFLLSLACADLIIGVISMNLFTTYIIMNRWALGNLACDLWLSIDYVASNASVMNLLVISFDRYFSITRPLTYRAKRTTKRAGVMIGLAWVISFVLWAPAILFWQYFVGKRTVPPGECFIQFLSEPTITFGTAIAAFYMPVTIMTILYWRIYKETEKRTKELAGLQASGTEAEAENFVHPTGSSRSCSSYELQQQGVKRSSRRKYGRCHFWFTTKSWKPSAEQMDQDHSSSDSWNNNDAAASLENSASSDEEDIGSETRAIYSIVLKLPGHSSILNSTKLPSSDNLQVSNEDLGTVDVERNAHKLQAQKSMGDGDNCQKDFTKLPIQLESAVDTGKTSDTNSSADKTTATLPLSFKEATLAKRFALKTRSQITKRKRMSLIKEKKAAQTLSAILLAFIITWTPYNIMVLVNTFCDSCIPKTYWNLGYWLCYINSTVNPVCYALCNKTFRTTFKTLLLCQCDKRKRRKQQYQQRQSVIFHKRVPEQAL
Glutamate receptor 3, sequence (P19492 whole entry): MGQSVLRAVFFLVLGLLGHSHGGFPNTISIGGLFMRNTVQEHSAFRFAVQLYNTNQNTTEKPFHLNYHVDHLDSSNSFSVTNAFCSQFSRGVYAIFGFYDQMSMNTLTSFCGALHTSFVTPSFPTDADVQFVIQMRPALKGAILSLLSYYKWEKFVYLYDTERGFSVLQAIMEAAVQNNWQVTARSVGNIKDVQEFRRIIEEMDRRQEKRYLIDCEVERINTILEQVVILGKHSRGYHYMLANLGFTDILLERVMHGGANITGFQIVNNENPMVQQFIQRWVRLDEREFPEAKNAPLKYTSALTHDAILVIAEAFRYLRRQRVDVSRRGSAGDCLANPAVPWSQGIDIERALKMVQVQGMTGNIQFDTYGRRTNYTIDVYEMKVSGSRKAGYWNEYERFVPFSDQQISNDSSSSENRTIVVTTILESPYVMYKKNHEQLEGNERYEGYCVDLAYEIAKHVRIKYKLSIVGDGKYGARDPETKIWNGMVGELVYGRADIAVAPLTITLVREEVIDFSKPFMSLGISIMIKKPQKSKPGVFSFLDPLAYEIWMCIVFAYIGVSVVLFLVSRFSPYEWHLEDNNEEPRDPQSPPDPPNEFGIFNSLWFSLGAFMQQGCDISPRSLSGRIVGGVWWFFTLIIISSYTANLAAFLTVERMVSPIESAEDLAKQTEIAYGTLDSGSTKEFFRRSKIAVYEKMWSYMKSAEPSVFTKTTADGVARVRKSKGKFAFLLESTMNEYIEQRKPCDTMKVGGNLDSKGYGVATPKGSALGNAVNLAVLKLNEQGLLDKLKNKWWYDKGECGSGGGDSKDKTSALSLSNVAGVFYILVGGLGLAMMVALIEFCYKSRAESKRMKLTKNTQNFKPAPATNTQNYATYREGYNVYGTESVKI
Sigma non-opioid intracellular receptor 1, sequence (Q9R0C9 whole entry): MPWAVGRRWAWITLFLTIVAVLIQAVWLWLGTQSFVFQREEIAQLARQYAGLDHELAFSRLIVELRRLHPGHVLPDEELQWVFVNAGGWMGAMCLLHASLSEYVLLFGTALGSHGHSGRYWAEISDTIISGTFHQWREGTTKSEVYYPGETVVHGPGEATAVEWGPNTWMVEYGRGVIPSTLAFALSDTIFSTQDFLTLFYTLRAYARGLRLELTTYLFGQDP
5-hydroxytryptamine receptor 2A, sequence (P14842 whole entry): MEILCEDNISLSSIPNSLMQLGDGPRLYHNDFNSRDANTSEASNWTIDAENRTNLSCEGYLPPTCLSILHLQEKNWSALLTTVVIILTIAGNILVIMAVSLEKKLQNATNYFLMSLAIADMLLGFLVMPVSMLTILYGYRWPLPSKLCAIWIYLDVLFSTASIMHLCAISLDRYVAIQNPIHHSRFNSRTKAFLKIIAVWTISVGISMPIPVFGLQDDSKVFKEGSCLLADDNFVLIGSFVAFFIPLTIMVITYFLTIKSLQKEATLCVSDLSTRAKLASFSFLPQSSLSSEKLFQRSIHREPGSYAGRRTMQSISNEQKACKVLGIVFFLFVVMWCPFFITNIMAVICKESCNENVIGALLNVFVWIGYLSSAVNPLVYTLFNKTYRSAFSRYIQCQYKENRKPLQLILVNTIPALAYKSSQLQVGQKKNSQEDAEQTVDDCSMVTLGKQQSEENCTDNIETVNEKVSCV
Beta-2 adrenergic receptor, sequence (P10608 whole entry): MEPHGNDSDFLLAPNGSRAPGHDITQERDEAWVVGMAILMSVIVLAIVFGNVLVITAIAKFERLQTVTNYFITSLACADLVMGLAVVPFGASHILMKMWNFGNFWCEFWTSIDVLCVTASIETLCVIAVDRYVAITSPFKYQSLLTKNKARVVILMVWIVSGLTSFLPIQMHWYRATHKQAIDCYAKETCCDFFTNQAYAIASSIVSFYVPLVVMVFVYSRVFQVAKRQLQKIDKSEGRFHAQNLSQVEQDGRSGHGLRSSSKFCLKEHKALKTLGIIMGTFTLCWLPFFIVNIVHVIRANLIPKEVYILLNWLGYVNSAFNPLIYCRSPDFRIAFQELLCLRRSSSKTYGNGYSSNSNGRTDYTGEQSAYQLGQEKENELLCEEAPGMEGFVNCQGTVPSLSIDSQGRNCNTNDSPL
D(2) dopamine receptor, sequence (P61169 whole entry): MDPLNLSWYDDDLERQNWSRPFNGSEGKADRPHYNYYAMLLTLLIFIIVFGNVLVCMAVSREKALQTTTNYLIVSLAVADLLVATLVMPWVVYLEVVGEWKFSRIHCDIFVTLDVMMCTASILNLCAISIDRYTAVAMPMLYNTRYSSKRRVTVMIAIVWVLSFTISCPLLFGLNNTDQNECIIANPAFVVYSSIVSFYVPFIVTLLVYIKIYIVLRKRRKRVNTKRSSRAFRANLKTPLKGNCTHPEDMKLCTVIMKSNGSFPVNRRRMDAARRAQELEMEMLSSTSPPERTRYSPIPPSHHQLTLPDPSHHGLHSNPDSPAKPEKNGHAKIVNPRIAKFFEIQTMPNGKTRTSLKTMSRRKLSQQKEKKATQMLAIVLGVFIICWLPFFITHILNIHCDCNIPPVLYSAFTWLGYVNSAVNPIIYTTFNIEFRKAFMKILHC
D(1A) dopamine receptor, sequence (P18901 whole entry): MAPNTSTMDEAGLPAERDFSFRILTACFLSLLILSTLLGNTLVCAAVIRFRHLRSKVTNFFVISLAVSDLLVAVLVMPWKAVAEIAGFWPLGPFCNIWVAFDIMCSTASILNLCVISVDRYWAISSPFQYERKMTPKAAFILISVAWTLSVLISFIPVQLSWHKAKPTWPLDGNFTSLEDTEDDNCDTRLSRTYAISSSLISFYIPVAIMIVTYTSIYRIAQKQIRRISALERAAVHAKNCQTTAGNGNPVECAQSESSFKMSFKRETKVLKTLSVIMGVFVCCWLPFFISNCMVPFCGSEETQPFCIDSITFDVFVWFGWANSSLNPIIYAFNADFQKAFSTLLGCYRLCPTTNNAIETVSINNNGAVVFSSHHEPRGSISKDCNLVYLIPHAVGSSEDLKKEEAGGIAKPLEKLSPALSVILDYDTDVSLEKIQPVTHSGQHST
Gamma-aminobutyric acid receptor subunit alpha-1, sequence (P62813 whole entry): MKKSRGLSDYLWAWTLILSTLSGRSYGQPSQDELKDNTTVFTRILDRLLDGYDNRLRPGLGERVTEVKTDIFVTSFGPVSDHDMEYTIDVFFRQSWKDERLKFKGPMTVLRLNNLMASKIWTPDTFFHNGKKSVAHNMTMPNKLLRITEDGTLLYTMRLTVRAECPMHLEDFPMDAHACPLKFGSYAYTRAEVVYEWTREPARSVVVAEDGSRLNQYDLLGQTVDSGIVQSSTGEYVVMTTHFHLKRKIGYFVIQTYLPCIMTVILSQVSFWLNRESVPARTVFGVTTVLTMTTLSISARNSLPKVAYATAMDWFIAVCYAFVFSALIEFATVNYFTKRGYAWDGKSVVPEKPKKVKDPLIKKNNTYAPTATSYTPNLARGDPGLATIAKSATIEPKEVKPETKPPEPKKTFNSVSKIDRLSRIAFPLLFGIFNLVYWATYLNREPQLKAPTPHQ

Cc1cccc(NC(=O)N[C@H]2N=C(c3ccccc3)c3ccccc3N(CC(=O)c3ccccc3C)C2=O)c1 [YM022 S-isomer]
140 nM and 490 nM: [1]

Cc1cccc(NC(=O)N[C@@H]2N=C(c3ccccc3)c3ccccc3N(CC(=O)c3ccccc3C)C2=O)c1
not listed: [1]
> 10 µM: all other assays above
